Several values for one entry are separate records, joined by “and”; a condition that tells them apart may be missing. Equal values may be shown once. Values belong to the molecule of their own block, whether it stands above or below them.
Key:
[1] = tested on: cannabinoid receptors / TRPV1 receptors; conditions: cited from earlier work
healthy female subjects [2] = assay: Laser evoked potentials; assay type: in vivo, human; conditions: for Dose at which the maximum postdose response was attained: LEP N2-P2 PtP, once daily multiple dosing; for Time to maximum response (percentage change in LEP N2-P2 PtP amplitudes): after dosing
healthy female subjects [3] = assay: VAS pain; assay type: in vivo, human; conditions: all subjects
[4] = Plasma pharmacokinetics after multiple ascending once daily doses; assay type: in vivo, human
healthy female subjects [5] = assay: Safety and tolerability; assay type: in vivo, human
rats = conditions: ref unpublished data; cited from earlier work
patients with PNP = conditions: cited from earlier work

Structure (SMILES): CCCCC/C=C\C/C=C\C/C=C\C/C=C\CCCC(=O)NCCO [AEA, N-arachidonoyl-ethanolamine]
Potency toward cannabinoid receptors relative to that toward TRPV1 receptors [1]: about 10 times

Structure (SMILES): O=C(Nc1ccccc1)C1CCN(C(=O)Oc2cccnc2)CC1 [ASP8477]
Mean Difference (95% CI) vs placebo, LEP N2-P2 PtP amplitude, secondary analysis (healthy female subjects [2]; 100 mg day 21 vs placebo day 21, all subjects, session as a random effect): −1.58 (−3.30 to 0.15) µV | Mean Difference (95% CI) vs placebo, LEP N2-P2 PtP amplitude, primary analysis (healthy female subjects [2]; 100 mg day 21 vs placebo day 21, all subjects, session as replications): −1.58 (−3.30 to 0.14) µV | LS mean PtP (SE), LEP N2-P2 PtP amplitude, secondary analysis (healthy female subjects [2]; 100 mg, day 21, all subjects, linear mixed regression model with session as a random effect): 29.66 (2.80) µV | LS mean PtP (SE), LEP N2-P2 PtP amplitude, primary analysis (healthy female subjects [2]; 100 mg, day 21, all subjects, linear mixed regression model with session as replications): 28.31 (2.75) µV | Dose at which the maximum postdose response was attained (healthy female subjects [2]): 20 mg | Time to maximum response (percentage change in LEP N2-P2 PtP amplitudes) (healthy female subjects [2]): approximately one to four | Day 14 predose response for LEP N2-P2 PtP amplitudes, % of the maximum response (healthy female subjects [2]; all subjects): 4% and 8% | Day 21 predose response for LEP N2-P2 PtP amplitudes, % of the maximum response (healthy female subjects [2]; all subjects): 19% | LEP N2-P2 PtP cumulative magnitude of response (AUC) (healthy female subjects [2]; all subjects): approximately 200 | LEP N2-P2 PtP amplitudes, overall mean (healthy female subjects [2]; all subjects, across all doses): 28.51 µV | Mean difference vs placebo in LEP N2-P2 PtP amplitudes (healthy female subjects [2]; all subjects, across all doses): –1.41 µV | Day 21 predose effect for LEP N2-P2 PtP amplitudes, % of the maximum achievable effect (healthy female subjects [2]; capsaicin-positive subgroup): 40% | LEP N2-P2 PtP cumulative magnitude of response (AUC) (healthy female subjects [2]; capsaicin-positive subgroup, day 7): approximately 400 | LEP N2-P2 PtP cumulative magnitude of response (AUC) (healthy female subjects [2]; capsaicin-positive subgroup, day 14): ~420 | LEP N2-P2 PtP cumulative magnitude of response (AUC) (healthy female subjects [2]; capsaicin-positive subgroup, day 21): ~470 | Day 14 predose response for VAS pain scores, % of the maximum response (healthy female subjects [3]): 23% | Day 21 predose response for VAS pain scores, % of the maximum response (healthy female subjects [3]): 4% | Mean difference vs placebo in VAS pain score (healthy female subjects [3]; all doses): –2.55% | Mean VAS pain score (healthy female subjects [3]; all three doses (overall)): 42.23% | Dose proportionality of PK parameters ([4]; between 20 mg and 100 mg, multiple ascending doses): more than dose-proportional | Absorption following oral dosing ([4]; oral dosing): rapidly absorbed | Median tmax (range) ([4]; oral dosing, all doses): 2.1 to 4.1 h | Tolerability (healthy female subjects [5]; ascending doses of 20 mg, 60 mg, and 100 mg once daily): well tolerated | Subjects reporting a treatment-emergent adverse event (TEAE) (healthy female subjects [5]; during treatment, all doses): 83% | TEAE disorientation, subjects (healthy female subjects [5]; during treatment, all doses): 8% | TEAE disturbance in attention and illusion, subjects (healthy female subjects [5]; during treatment, all doses): 13% | TEAE dry mouth, subjects (healthy female subjects [5]; during treatment, all doses): 21% | TEAE fatigue, subjects (healthy female subjects [5]; during treatment, all doses): 29% | TEAE headache, subjects (healthy female subjects [5]; during treatment, all doses): 29% | TEAE memory impairment, subjects (healthy female subjects [5]; during treatment, all doses): 13% | TEAE vertigo, subjects (healthy female subjects [5]; during treatment, all doses): 29% | Effects in nonclinical toxicity studies (rats): effects observed on male fertility | Difference between ASP8477 and placebo (patients with PNP; double-blind randomized withdrawal period): no difference | Patients reporting a reduction of ≥30% in their pain (patients with PNP; single-blind period, 30 mg BID): ~60%

PK parameters of 60 mg compared with 30 mg ([4]; once daily for seven days): approximately doubled
Structure (SMILES): CNCC[C@H](Oc1cccc2ccccc12)c1cccs1 [duloxetine, reference compound]
Dose at which the maximum postdose response was attained (healthy female subjects [2]): 30 mg | Time to maximum response (percentage change in LEP N2-P2 PtP amplitudes) (healthy female subjects [2]): approximately one to four | Day 14 predose response for LEP N2-P2 PtP amplitudes, % of the maximum response (healthy female subjects [2]; all subjects): 26% | Day 21 predose response for LEP N2-P2 PtP amplitudes, % of the maximum response (healthy female subjects [2]; all subjects): 44% | LEP N2-P2 PtP amplitudes, overall mean (healthy female subjects [2]; all subjects, across all doses): 24.71 µV | Mean difference duloxetine vs ASP8477 in LEP N2-P2 PtP amplitudes (healthy female subjects [2]; all subjects, across all doses): –3.80 µV | Mean difference vs placebo in LEP N2-P2 PtP amplitudes (healthy female subjects [2]; all subjects, across all doses): –5.21 µV | Day 14 predose effect for LEP N2-P2 PtP amplitudes, % of the maximum achievable effect (healthy female subjects [2]; capsaicin-positive subgroup): 40% | Day 21 predose effect for LEP N2-P2 PtP amplitudes, % of the maximum achievable effect (healthy female subjects [2]; capsaicin-positive subgroup): around 40% | Time to maximum effect (healthy female subjects [2]; postdose): five | Day 14 predose response for VAS pain scores, % of the maximum response (healthy female subjects [3]): 17% | Day 21 predose response for VAS pain scores, % of the maximum response (healthy female subjects [3]): 10% | TEAE fatigue, subjects (healthy female subjects [5]; during treatment, all doses): 29% | TEAE nausea, subjects (healthy female subjects [5]; during treatment, all doses): 29%
